Data: patent US10457691B2, “Macrocyclic kinase inhibitors and uses thereof” (Dana-Farber Cancer Institute, Inc., priority 2014, dated 2019)

Tests used:
Format in all cases: biochemical
[1] = target: MAPKAP-K2 (Homo sapiens, UniProt P49137); assay: Protein kinase assay ([γ-32P] ATP), MAPKAP-K2; settings: read-out: Activity of the protein kinase when treated with compound I-1 (% control)
Method: (§1) In another set of experiments, the activities of the compounds described herein against various protein kinases were determined according to the methods reported in Hastie et al., Nature Protocols, 2006, 1, 968-971.
(§2) Enzyme dilution buffer. This buffer consisted of 50 mM Tris-HCl, pH 7.5, 0.1 mM EGTA, 1 mg ml^−1 bovine serum albumin and 0.1% (vol/vol) 2-mercaptoethanol.
(§3) 10× concentrated assay buffer. An assay buffer of 500 mM Tris-HCl, pH 7.5, 1 mM EGTA, and 100 mM magnesium acetate was used for assay of a wide variety of protein kinases. In some experiments, other cofactors were included (e.g., calcium ions and calmodulin were included for assay of calcium-calmodulindependent protein kinases).
(§4) 1 mM [γ-^32P] ATP. The specific activity of the [γ-^32P] ATP solution was 1×10^5 to 1×10^6 c.p.m. per nmol depending on what was needed to produce an optimal signal/noise ratio. […] To measure the concentration of ATP, a sample of such a stock solution was diluted to 20 μM, and the absorbance of the diluted sample was measured at 259 nm. The absorbance of a 20-μM stock solution of ATP at 259 nm was about 0.31. […] ATP to produce a radioactivity of 1×10^5 to 1×10^6 c.p.m. per nmol. […]
(§5) 13) Measure radioactivity in the samples by Cerenkov counting (e.g., without liquid scintillation fluid) in a liquid scintillation counter using a “^32P program”. […]

[2] = target: PIM2 (Homo sapiens, UniProt Q9P1W9); assay: Protein kinase assay ([γ-32P] ATP), PIM2; settings: read-out: Activity of the protein kinase when treated with compound I-1 (% control)
Method: as §1, §2, §3, §4, §5

[3] = target: CDK9-Cyclin T1 (Homo sapiens, UniProt P50750); assay: Protein kinase assay ([γ-32P] ATP), CDK9-Cyclin T1; settings: read-out: Activity of the protein kinase when treated with compound I-1 (% control)
Method: as §1, §2, §3, §4, §5

[4] = target: p38b MAPK (Homo sapiens, UniProt Q15759); assay: Protein kinase assay ([γ-32P] ATP), p38b MAPK; settings: read-out: Activity of the protein kinase when treated with compound I-1 (% control)
Method: as §1, §2, §3, §4, §5

[5] = target: Aurora B (Homo sapiens, UniProt Q96GD4); assay: Protein kinase assay ([γ-32P] ATP), Aurora B; settings: read-out: Activity of the protein kinase when treated with compound I-1 (% control)
Method: as §1, §2, §3, §4, §5

[6] = target: PAK5 (Homo sapiens, UniProt Q9P286); assay: Protein kinase assay ([γ-32P] ATP), PAK5; settings: read-out: Activity of the protein kinase when treated with compound I-1 (% control)
Method: as §1, §2, §3, §4, §5

[7] = target: BRK (Homo sapiens, UniProt Q13882); assay: Protein kinase assay ([γ-32P] ATP), BRK; settings: read-out: Activity of the protein kinase when treated with compound I-1 (% control)
Method: as §1, §2, §3, §4, §5

[8] = target: HIPK2 (Homo sapiens, UniProt Q9H2X6); assay: Protein kinase assay ([γ-32P] ATP), HIPK2; settings: read-out: Activity of the protein kinase when treated with compound I-1 (% control)
Method: as §1, §2, §3, §4, §5

[9] = target: FGF-R1 (Homo sapiens, UniProt P11362); assay: Protein kinase assay ([γ-32P] ATP), FGF-R1; settings: read-out: Activity of the protein kinase when treated with compound I-1 (% control)
Method: as §1, §2, §3, §4, §5

[10] = target: MNK2 (Homo sapiens, UniProt Q9HBH9); assay: Protein kinase assay ([γ-32P] ATP), MNK2; settings: read-out: Activity of the protein kinase when treated with compound I-1 (% control)
Method: as §1, §2, §3, §4, §5

[11] = target: p38d MAPK (Homo sapiens, UniProt O15264); assay: Protein kinase assay ([γ-32P] ATP), p38d MAPK; settings: read-out: Activity of the protein kinase when treated with compound I-1 (% control)
Method: as §1, §2, §3, §4, §5

[12] = target: PKBa (Homo sapiens, UniProt P31749); assay: Protein kinase assay ([γ-32P] ATP), PKBa; settings: read-out: Activity of the protein kinase when treated with compound I-1 (% control)
Method: as §1, §2, §3, §4, §5

[13] = target: NEK6 (Homo sapiens, UniProt Q9HC98); assay: Protein kinase assay ([γ-32P] ATP), NEK6; settings: read-out: Activity of the protein kinase when treated with compound I-1 (% control)
Method: as §1, §2, §3, §4, §5

[14] = target: CSK (Homo sapiens, UniProt P41240); assay: Protein kinase assay ([γ-32P] ATP), CSK; settings: read-out: Activity of the protein kinase when treated with compound I-1 (% control)
Method: as §1, §2, §3, §4, §5

[15] = target: EPH-A2 (Homo sapiens, UniProt P29317); assay: Protein kinase assay ([γ-32P] ATP), EPH-A2; settings: read-out: Activity of the protein kinase when treated with compound I-1 (% control)
Method: as §1, §2, §3, §4, §5

[16] = target: TLK1 (Homo sapiens, UniProt Q9UKI8); assay: Protein kinase assay ([γ-32P] ATP), TLK1; settings: read-out: Activity of the protein kinase when treated with compound I-1 (% control)
Method: as §1, §2, §3, §4, §5

[17] = test system: AMPK; assay: Protein kinase assay ([γ-32P] ATP), AMPK
Method: as §1, §2, §3, §4, §5

[18] = 0.1 μM of compound I-1, DMSO control = 100%
[19] = 1 μM of compound I-1, DMSO control = 100%

Chain of EPH-A2 (P29317 24-976): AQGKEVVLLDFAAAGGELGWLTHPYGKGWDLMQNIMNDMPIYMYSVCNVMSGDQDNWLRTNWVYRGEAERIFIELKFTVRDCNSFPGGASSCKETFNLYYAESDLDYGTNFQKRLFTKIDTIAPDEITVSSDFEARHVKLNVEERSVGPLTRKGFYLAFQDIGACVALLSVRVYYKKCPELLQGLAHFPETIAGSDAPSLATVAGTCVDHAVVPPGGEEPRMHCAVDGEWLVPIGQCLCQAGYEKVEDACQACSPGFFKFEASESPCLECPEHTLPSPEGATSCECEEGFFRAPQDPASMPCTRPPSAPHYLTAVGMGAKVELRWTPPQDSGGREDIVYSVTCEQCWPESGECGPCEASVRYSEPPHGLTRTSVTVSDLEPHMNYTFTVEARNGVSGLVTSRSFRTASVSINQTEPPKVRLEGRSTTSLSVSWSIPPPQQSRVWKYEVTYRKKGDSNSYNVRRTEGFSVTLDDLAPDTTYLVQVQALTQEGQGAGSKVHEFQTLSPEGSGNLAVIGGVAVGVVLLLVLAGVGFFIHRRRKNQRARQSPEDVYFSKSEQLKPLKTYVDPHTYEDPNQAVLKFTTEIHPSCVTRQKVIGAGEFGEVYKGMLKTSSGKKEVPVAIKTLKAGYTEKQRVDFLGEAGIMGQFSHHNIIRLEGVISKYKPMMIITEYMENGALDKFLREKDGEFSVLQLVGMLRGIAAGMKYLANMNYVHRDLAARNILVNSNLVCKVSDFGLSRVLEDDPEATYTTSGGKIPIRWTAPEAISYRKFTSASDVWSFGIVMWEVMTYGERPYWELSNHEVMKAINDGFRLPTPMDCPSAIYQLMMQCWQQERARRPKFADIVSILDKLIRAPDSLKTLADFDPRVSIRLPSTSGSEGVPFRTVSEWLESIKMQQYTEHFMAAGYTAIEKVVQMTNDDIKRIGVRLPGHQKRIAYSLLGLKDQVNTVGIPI
Chain of CSK (P41240 whole entry): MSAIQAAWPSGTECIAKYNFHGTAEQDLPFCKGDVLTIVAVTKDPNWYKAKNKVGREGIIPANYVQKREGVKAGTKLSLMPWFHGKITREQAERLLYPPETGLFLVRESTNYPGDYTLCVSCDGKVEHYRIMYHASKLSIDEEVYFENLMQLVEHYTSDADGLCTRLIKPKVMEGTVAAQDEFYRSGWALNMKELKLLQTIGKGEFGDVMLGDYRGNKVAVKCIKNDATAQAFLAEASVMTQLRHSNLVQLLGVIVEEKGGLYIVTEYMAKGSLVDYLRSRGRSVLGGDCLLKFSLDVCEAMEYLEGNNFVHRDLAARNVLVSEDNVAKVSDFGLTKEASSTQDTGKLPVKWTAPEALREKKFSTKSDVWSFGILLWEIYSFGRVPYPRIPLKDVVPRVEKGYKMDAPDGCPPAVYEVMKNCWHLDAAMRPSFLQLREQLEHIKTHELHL
Chain of MAPKAP-K2 (P49137 whole entry): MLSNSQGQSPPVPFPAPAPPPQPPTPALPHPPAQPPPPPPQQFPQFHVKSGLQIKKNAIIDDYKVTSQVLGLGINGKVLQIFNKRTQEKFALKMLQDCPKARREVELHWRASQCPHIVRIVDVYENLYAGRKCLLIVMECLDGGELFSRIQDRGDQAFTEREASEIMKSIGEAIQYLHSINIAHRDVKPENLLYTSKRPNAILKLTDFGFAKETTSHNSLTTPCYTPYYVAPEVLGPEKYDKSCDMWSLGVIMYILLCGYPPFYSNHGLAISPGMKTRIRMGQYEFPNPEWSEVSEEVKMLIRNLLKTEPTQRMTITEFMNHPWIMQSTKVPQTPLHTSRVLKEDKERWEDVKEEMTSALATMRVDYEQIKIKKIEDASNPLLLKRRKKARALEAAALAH
Chain of PKBa (P31749 whole entry): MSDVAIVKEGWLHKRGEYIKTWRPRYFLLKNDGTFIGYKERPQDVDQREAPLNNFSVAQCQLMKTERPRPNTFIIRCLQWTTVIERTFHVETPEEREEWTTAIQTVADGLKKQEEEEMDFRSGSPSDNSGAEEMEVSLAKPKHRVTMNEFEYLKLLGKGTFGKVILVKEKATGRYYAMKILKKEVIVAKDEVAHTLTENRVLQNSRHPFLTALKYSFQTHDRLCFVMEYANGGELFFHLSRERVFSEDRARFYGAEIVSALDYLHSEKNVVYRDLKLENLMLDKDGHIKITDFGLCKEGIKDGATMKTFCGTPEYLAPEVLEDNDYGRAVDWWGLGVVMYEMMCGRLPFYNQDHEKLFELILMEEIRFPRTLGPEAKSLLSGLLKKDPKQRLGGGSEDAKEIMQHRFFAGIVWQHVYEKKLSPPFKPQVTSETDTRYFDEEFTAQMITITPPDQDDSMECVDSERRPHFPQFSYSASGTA
Chain of MNK2 (Q9HBH9 whole entry): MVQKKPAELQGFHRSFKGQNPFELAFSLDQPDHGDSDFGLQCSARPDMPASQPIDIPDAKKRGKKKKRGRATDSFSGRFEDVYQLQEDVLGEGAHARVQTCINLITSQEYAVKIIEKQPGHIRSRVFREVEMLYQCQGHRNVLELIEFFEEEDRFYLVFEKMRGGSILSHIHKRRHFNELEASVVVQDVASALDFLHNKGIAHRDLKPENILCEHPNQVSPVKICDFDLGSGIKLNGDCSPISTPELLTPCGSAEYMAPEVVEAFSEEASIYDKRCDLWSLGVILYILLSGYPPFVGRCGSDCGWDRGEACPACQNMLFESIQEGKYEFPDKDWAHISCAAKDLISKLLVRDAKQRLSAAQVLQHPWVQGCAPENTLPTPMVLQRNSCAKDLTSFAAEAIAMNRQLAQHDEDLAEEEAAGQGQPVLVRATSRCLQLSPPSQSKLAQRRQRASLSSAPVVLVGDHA
Chain of BRK (Q13882 whole entry): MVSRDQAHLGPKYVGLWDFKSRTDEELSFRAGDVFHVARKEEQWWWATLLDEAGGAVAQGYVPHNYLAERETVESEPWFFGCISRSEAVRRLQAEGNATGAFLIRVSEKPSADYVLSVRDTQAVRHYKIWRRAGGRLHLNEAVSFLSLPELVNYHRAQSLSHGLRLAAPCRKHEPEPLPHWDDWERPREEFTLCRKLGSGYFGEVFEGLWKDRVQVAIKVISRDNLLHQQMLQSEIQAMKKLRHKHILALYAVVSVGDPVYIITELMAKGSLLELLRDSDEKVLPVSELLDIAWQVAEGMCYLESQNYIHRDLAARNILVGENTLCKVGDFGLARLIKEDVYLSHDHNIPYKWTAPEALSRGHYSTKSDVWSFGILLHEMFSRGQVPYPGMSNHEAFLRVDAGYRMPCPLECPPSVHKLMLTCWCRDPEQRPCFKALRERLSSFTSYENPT
Chain of Aurora B (Q96GD4 whole entry): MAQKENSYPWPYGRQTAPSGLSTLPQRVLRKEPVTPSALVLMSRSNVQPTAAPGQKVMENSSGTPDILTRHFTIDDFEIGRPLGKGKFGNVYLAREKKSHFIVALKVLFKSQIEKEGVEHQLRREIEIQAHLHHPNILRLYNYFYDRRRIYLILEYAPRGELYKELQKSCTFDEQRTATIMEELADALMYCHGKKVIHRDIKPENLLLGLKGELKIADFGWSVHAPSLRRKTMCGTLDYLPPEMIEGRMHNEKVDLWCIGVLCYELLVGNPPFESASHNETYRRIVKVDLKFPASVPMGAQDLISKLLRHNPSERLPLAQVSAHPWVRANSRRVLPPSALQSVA
Chain of p38d MAPK (O15264 whole entry): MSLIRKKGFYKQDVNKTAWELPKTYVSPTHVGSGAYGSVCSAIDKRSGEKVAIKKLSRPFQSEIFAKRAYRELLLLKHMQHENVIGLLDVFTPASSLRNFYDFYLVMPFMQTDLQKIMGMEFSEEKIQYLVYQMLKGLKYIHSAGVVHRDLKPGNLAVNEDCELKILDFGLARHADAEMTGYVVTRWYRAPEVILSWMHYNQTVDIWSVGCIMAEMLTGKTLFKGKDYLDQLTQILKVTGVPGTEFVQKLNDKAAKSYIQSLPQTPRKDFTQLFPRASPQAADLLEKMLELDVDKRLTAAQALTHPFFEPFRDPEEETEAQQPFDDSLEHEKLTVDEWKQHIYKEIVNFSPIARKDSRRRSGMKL
Chain of FGF-R1 (P11362 22-822): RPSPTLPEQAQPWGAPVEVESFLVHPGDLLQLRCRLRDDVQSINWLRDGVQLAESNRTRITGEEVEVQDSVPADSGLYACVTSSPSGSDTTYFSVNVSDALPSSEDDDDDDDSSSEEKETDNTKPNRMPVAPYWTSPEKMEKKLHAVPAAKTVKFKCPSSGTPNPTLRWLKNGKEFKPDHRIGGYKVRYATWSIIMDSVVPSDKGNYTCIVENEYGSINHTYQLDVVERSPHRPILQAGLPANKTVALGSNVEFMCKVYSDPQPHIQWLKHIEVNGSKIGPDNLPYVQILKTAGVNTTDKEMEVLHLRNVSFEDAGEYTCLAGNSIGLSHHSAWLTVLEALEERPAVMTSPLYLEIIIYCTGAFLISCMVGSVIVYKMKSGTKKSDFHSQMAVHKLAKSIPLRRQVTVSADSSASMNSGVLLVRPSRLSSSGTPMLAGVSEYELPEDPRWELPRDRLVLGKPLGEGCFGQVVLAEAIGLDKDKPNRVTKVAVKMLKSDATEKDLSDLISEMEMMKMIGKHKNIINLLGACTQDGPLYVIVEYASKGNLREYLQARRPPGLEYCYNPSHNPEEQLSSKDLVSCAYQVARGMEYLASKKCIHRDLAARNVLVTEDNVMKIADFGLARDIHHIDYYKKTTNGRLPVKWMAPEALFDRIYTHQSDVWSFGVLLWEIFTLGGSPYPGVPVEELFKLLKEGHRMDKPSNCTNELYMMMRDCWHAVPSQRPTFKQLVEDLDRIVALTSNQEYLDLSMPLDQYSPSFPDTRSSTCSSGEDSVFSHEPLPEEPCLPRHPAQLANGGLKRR

Cc1cccc(C)c1NC(=O)N1C/C=C\COc2cccc(c2)Nc2cc1ncn2 [Compound I-1]
remaining activity at 0.1 µM [1, 18]: 88% | remaining activity at 1 µM [1, 19]: 84% | remaining activity at 0.1 µM [2, 18]: 92% | remaining activity at 1 µM [2, 19]: 90% | remaining activity at 0.1 µM [3, 18]: 116% | remaining activity at 1 µM [3, 19]: 92% | remaining activity at 0.1 µM [4, 18]: 83% | remaining activity at 1 µM [4, 19]: 29% | remaining activity at 0.1 µM [5, 18]: 89% | remaining activity at 1 µM [5, 19]: 78% | remaining activity at 0.1 µM [6, 18]: 90% | remaining activity at 1 µM [6, 19]: 64% | remaining activity at 0.1 µM [7, 18]: 36% | remaining activity at 1 µM [7, 19]: 12% | remaining activity at 0.1 µM [8, 18]: 110% | remaining activity at 1 µM [8, 19]: 91% | remaining activity at 0.1 µM [9, 18]: 41% | remaining activity at 1 µM [9, 19]: 12% | remaining activity at 0.1 µM [10, 18]: 104% | remaining activity at 1 µM [10, 19]: 108% | remaining activity at 0.1 µM [11, 18]: 110% | remaining activity at 1 µM [11, 19]: 73% | remaining activity at 0.1 µM [12, 18]: 99% | remaining activity at 1 µM [12, 19]: 86% | remaining activity at 0.1 µM [13, 18]: 91% | remaining activity at 1 µM [13, 19]: 87% | remaining activity at 0.1 µM [14, 18]: 101% | remaining activity at 1 µM [14, 19]: 10% | remaining activity at 0.1 µM [15, 18]: 11% | remaining activity at 1 µM [15, 19]: 5% | remaining activity at 0.1 µM [16, 18]: 112% | remaining activity at 1 µM [16, 19]: 92% | Activity of the protein kinase when treated with compound I-1 (% control) [17, 18]: 96 % control | Activity of the protein kinase when treated with compound I-1 (% control) [17, 19]: 91 % control
